In the kinase profiling compilation of Christmann-Franck et al. (2016):

Experiments:
Test in all cases: radiometric filter-binding kinase assay, Kinase HotSpot
Conditions in all cases: compound 0.5 µM; ATP 10 µM
FLT3 (human) = FLT3 (human) (UniProt P36888)
STK17A (human) = STK17A (human) (UniProt Q9UEE5)
CSNK1D (human) = CSNK1D (human) (UniProt P48730)
EPHB1 (human) = EPHB1 (human) (UniProt P54762)
ITK (human) = ITK (human) (UniProt Q08881)
MARK1 (human) = MARK1 (human) (UniProt Q9P0L2)
CDC42BPA (human) = CDC42BPA (human) (UniProt Q5VT25)
JAK3 JH1 JH2 (human) = JAK3 JH1 JH2 (human) (UniProt P52333)
PKN1 (human) = PKN1 (human) (UniProt Q16512)
PAK7 (human) = PAK7 (human) (UniProt Q9P286)
BRAF (human) = BRAF (human) (UniProt P15056)
PIM3 (human) = PIM3 (human) (UniProt Q86V86)
MAP3K8 (human) = MAP3K8 (human) (UniProt P41279)
Chain of MAP3K8 (human) (P41279 whole entry, looked up): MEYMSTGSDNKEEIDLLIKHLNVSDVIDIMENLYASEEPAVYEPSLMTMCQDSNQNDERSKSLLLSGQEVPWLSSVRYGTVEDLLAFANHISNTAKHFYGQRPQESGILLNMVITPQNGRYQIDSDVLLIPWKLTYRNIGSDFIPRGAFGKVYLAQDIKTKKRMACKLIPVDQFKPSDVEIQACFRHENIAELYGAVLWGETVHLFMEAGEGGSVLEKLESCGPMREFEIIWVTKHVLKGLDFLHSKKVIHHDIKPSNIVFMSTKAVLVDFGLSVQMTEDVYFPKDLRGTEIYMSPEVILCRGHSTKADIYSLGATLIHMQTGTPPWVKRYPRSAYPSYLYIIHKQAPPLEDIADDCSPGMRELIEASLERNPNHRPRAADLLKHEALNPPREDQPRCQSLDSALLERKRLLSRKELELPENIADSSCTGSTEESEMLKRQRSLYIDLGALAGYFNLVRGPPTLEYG

CAMK2A (human) = CAMK2A (human) (UniProt Q9UQM7)
MAPK8 (human) = MAPK8 (human) (UniProt P45983)
Chain of MAPK8 (human) (P45983 whole entry, looked up): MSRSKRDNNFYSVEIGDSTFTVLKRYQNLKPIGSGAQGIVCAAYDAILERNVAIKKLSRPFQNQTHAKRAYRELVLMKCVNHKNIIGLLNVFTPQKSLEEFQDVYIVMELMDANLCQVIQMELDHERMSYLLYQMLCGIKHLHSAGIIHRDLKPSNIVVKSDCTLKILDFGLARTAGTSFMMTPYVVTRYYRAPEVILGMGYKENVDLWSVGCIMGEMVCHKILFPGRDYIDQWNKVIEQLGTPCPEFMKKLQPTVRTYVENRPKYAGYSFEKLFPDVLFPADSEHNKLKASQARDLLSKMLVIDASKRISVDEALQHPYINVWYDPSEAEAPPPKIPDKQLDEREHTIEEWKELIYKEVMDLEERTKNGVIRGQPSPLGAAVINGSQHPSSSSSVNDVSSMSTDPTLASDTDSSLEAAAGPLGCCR

HIPK4 (human) = HIPK4 (human) (UniProt Q8NE63)
CSK (human) = CSK (human) (UniProt P41240)
INSR (human) = INSR (human) (UniProt P06213)
AURKC (human) = AURKC (human) (UniProt Q9UQB9)
MAP3K3 (human) = MAP3K3 (human) (UniProt Q99759)
CSNK1G3 (human) = CSNK1G3 (human) (UniProt Q9Y6M4)
SGK3 (human) = SGK3 (human) (UniProt Q96BR1)
Chain of SGK3 (human) (Q96BR1 whole entry, looked up): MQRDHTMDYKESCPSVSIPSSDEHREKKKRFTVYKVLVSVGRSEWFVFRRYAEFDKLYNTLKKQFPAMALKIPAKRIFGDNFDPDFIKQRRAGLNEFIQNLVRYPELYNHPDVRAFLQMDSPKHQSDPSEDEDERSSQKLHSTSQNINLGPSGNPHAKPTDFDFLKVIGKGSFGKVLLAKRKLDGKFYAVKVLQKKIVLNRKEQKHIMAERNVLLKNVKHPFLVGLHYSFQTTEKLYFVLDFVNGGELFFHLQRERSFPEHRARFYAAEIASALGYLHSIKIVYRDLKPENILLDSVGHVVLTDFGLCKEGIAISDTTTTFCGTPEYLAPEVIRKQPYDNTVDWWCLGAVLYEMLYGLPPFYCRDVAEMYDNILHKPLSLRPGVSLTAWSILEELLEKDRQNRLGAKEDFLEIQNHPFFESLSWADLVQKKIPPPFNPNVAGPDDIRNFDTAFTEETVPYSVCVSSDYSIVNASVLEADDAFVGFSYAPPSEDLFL

LRRK2 (human) = LRRK2 (human) (UniProt Q5S007)
PAK6 (human) = PAK6 (human) (UniProt Q9NQU5)
Chain of PAK6 (human) (Q9NQU5 whole entry, looked up): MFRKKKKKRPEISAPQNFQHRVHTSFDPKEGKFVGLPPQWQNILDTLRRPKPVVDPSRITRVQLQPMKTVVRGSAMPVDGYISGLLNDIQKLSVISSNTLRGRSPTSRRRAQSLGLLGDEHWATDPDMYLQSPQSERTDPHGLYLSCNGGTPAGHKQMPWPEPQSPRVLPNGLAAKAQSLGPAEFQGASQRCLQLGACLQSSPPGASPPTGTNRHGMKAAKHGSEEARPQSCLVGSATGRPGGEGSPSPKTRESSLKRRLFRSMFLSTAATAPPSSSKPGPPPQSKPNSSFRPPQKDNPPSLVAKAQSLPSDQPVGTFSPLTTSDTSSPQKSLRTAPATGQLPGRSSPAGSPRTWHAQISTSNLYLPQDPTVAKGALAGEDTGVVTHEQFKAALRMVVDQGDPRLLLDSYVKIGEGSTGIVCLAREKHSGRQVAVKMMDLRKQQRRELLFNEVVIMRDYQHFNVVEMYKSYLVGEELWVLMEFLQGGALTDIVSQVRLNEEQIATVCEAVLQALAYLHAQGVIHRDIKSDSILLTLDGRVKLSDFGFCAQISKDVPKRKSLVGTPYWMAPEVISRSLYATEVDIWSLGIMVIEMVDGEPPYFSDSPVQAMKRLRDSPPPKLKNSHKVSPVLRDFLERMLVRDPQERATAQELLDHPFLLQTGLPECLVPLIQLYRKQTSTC

TGFBR1 (human) = TGFBR1 (human) (UniProt P36897)
MUSK (human) = MUSK (human) (UniProt O15146)
LIMK1 (human) = LIMK1 (human) (UniProt P53667)
CDK2 CCNE1 (human) = CDK2 CCNE1 (human) (UniProt P24941+P24864)
CDK4 CCND3 (human) = CDK4 CCND3 (human) (UniProt P30281+P11802)
EPHB2 (human) = EPHB2 (human) (UniProt P29323)
MATK (human) = MATK (human) (UniProt P42679)
GSG2 (human) = GSG2 (human) (UniProt Q8TF76)
MARK3 (human) = MARK3 (human) (UniProt P27448)
CDK5 CDK5R1 p25 (human) = CDK5 CDK5R1 p25 (human) (UniProt Q00535+Q15078)
STK10 (human) = STK10 (human) (UniProt O94804)
Chain of STK10 (human) (O94804 whole entry, looked up): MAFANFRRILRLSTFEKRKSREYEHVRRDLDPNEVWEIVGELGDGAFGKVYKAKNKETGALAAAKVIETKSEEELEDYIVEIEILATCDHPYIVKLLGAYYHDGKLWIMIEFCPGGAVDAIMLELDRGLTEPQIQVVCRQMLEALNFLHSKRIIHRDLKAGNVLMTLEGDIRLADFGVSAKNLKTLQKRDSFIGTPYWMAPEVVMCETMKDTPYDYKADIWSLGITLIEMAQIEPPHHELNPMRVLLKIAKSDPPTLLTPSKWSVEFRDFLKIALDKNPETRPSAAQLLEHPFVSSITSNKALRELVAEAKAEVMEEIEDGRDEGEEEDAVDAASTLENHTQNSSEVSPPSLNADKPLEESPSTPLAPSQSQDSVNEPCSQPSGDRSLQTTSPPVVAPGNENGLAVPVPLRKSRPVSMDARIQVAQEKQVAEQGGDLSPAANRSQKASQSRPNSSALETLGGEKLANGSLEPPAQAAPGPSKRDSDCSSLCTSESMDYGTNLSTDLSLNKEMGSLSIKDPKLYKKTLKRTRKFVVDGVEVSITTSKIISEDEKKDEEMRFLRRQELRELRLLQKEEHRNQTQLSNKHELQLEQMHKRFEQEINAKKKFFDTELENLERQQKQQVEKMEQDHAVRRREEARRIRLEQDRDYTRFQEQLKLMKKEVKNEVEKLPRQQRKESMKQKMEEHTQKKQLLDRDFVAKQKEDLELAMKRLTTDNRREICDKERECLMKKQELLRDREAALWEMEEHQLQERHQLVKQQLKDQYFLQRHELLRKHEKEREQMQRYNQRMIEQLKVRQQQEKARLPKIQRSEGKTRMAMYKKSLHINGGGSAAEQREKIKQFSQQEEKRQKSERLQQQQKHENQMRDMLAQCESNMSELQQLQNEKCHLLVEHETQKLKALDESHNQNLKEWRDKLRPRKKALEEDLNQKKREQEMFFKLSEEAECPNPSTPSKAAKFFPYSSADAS

ULK2 (human) = ULK2 (human) (UniProt Q8IYT8)
MELK (human) = MELK (human) (UniProt Q14680)
MAP3K9 (human) = MAP3K9 (human) (UniProt P80192)
Chain of MAP3K9 (human) (P80192 whole entry, looked up): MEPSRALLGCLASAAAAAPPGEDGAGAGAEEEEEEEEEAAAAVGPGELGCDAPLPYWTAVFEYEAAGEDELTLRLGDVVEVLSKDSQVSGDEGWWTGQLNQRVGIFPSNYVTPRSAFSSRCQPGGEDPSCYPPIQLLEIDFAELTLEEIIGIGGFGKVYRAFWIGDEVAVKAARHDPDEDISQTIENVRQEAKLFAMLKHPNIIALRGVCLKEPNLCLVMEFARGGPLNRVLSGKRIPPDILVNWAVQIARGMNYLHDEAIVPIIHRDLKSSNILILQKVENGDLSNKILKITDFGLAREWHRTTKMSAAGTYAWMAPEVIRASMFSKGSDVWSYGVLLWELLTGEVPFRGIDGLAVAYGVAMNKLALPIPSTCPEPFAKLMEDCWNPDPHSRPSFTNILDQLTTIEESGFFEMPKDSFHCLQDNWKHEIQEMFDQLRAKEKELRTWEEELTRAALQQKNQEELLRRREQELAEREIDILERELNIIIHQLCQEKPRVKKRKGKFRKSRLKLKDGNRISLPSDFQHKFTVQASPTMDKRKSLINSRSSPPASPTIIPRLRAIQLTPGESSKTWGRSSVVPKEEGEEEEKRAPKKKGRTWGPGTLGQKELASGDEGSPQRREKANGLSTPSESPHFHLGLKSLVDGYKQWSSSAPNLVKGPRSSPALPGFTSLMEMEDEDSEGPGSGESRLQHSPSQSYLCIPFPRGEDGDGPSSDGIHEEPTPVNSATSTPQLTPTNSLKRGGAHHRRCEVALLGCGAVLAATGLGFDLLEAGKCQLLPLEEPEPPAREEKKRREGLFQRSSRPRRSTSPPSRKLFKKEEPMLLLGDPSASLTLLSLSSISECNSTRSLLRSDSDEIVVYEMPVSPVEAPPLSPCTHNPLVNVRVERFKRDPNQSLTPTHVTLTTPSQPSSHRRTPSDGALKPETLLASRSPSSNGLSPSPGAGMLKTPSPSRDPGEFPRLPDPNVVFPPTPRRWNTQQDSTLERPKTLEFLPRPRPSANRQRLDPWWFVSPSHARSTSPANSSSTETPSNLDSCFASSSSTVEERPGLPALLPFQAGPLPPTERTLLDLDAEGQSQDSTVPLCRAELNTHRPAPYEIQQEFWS

NUAK1 (human) = NUAK1 (human) (UniProt O60285)
DSTYK (human) = DSTYK (human) (UniProt Q6XUX3)
AURKA (human) = AURKA (human) (UniProt O14965)

Chain of STK17A (human) (Q9UEE5 whole entry, looked up): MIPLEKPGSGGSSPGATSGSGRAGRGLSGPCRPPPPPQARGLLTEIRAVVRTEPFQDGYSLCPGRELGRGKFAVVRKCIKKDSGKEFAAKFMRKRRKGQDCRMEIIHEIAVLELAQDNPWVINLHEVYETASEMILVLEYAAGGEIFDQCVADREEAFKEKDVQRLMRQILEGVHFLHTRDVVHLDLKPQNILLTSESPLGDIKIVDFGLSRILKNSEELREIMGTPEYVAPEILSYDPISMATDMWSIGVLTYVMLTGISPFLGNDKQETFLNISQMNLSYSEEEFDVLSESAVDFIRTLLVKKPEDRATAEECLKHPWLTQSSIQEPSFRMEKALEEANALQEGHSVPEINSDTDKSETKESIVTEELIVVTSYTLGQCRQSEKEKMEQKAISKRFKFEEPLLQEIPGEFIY
Chain of CSNK1D (human) (P48730 whole entry, looked up): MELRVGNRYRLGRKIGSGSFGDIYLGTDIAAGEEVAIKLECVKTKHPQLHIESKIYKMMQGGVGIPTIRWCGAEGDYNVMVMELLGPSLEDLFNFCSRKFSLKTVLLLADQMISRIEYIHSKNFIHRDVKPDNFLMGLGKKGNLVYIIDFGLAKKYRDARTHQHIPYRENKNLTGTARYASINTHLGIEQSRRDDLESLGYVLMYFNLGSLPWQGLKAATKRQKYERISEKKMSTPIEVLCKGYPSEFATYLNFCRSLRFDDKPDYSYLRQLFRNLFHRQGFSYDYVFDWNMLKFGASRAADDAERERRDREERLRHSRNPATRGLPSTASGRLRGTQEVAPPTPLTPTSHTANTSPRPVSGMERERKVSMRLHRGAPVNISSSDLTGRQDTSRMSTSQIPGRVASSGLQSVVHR

## O=C(Nc1cccc(Nc2nccc(Nc3cccc(C(F)(F)F)c3)n2)c1)C1CC1
FLT3 (human)
  residual activity: 73.1%
STK17A (human)
  residual activity: 97.6%
CSNK1D (human)
  residual activity: 111%
EPHB1 (human)
  residual activity: 85.6%
ITK (human)
  residual activity: 101%
MARK1 (human)
  residual activity: 104%
CDC42BPA (human)
  residual activity: 100%
JAK3 JH1 JH2 (human)
  residual activity: 109%
PKN1 (human)
  residual activity: 93.3%
PAK7 (human)
  residual activity: 89.2%
BRAF (human)
  residual activity: 104%
PIM3 (human)
  residual activity: 106%
MAP3K8 (human)
  residual activity: 111%
CAMK2A (human)
  residual activity: 98%
MAPK8 (human)
  residual activity: 85.7%
HIPK4 (human)
  residual activity: 111%
CSK (human)
  residual activity: 97.4%
INSR (human)
  residual activity: 89.8%
AURKC (human)
  residual activity: 80.8%
MAP3K3 (human)
  residual activity: 97.9%
CSNK1G3 (human)
  residual activity: 93.5%
SGK3 (human)
  residual activity: 111%
LRRK2 (human)
  residual activity: 93.7%
PAK6 (human)
  residual activity: 100%
TGFBR1 (human)
  residual activity: 102%
MUSK (human)
  residual activity: 101%
LIMK1 (human)
  residual activity: 45.1%
CDK2 CCNE1 (human)
  residual activity: 85.1%
CDK4 CCND3 (human)
  residual activity: 103%
EPHB2 (human)
  residual activity: 97.8%
MATK (human)
  residual activity: 101%
GSG2 (human)
  residual activity: 101%
MARK3 (human)
  residual activity: 102%
CDK5 CDK5R1 p25 (human)
  residual activity: 99%
STK10 (human)
  residual activity: 90.1%
ULK2 (human)
  residual activity: 107%
MELK (human)
  residual activity: 101%
MAP3K9 (human)
  residual activity: 95.2%
NUAK1 (human)
  residual activity: 67.2%
DSTYK (human)
  residual activity: 93.8%

## COc1cc2ncnc(Nc3cccc(Cl)c3)c2cc1OC
FLT3 (human)
  residual activity: 37.6%
STK17A (human)
  residual activity: 95.4%
CSNK1D (human)
  residual activity: 100%
EPHB1 (human)
  residual activity: 82.8%
ITK (human)
  residual activity: 93.8%
CDC42BPA (human)
  residual activity: 82.2%
JAK3 JH1 JH2 (human)
  residual activity: 91.6%
PKN1 (human)
  residual activity: 96.8%
PAK7 (human)
  residual activity: 83%
BRAF (human)
  residual activity: 96%
PIM3 (human)
  residual activity: 99.4%
MAP3K8 (human)
  residual activity: 104%
CAMK2A (human)
  residual activity: 98.2%
MAPK8 (human)
  residual activity: 93.8%
HIPK4 (human)
  residual activity: 64.4%
CSK (human)
  residual activity: 91.1%
INSR (human)
  residual activity: 77.6%
AURKC (human)
  residual activity: 85.8%
MAP3K3 (human)
  residual activity: 88.3%
CSNK1G3 (human)
  residual activity: 92.4%
SGK3 (human)
  residual activity: 90.9%
LRRK2 (human)
  residual activity: 60.9%
PAK6 (human)
  residual activity: 81.6%
TGFBR1 (human)
  residual activity: 100%
MUSK (human)
  residual activity: 88.3%
LIMK1 (human)
  residual activity: 72.4%
CDK2 CCNE1 (human)
  residual activity: 90.4%
CDK4 CCND3 (human)
  residual activity: 103%
EPHB2 (human)
  residual activity: 98.1%
MATK (human)
  residual activity: 103%
GSG2 (human)
  residual activity: 84.8%
AURKA (human)
  residual activity: 93.3%
MARK3 (human)
  residual activity: 89.8%
CDK5 CDK5R1 p25 (human)
  residual activity: 87.3%
STK10 (human)
  residual activity: 24.5%
ULK2 (human)
  residual activity: 103%
MELK (human)
  residual activity: 81.8%
MAP3K9 (human)
  residual activity: 82.8%
NUAK1 (human)
  residual activity: 75.8%
DSTYK (human)
  residual activity: 90.8%

## O=S(=O)(c1cccc2cnccc12)N1CCCNCC1
FLT3 (human)
  residual activity: 103%
STK17A (human)
  residual activity: 98.2%
CSNK1D (human)
  residual activity: 99.7%
EPHB1 (human)
  residual activity: 106%
ITK (human)
  residual activity: 90.7%
MARK1 (human)
  residual activity: 98.6%
CDC42BPA (human)
  residual activity: 104%
JAK3 JH1 JH2 (human)
  residual activity: 120%
PKN1 (human)
  residual activity: 40.5%
PAK7 (human)
  residual activity: 73.1%
BRAF (human)
  residual activity: 97.7%
PIM3 (human)
  residual activity: 91.4%
MAP3K8 (human)
  residual activity: 91.8%
CAMK2A (human)
  residual activity: 99.9%
MAPK8 (human)
  residual activity: 89.7%
HIPK4 (human)
  residual activity: 103%
CSK (human)
  residual activity: 87.9%
INSR (human)
  residual activity: 95%
AURKC (human)
  residual activity: 97.4%
MAP3K3 (human)
  residual activity: 89.3%
CSNK1G3 (human)
  residual activity: 85%
SGK3 (human)
  residual activity: 91.6%
LRRK2 (human)
  residual activity: 94.2%
PAK6 (human)
  residual activity: 87%
TGFBR1 (human)
  residual activity: 98.4%
MUSK (human)
  residual activity: 97.6%
LIMK1 (human)
  residual activity: 100%
CDK4 CCND3 (human)
  residual activity: 98.5%
EPHB2 (human)
  residual activity: 83.2%
MATK (human)
  residual activity: 99.6%
GSG2 (human)
  residual activity: 86.6%
AURKA (human)
  residual activity: 101%
STK10 (human)
  residual activity: 103%
ULK2 (human)
  residual activity: 101%
MELK (human)
  residual activity: 78.6%
MAP3K9 (human)
  residual activity: 94.4%
NUAK1 (human)
  residual activity: 73.2%
DSTYK (human)
  residual activity: 90.4%
